The results in this text go back to the supplement of paper PMC12317010.

Counter-ions that a name gives are not always drawn.

The series is described as follows: collision cross section in nitrogen (drift tube, single-field); higher = larger gas-phase ion size.
Where [1] appears, read: ion type: [M+H], ion source: ESI, ion mode: Positive.
Where [2] appears, read: ion type: [M+Na], ion source: ESI, ion mode: Positive.
The mark [3] stands for this setting: ion type: [M-H], ion source: ESI, ion mode: Negative.
The mark [4] stands for this setting: ion type: [M+H], ion source: APCI, ion mode: Positive.
Setting [5] is: ion type: [M+], ion source: APCI, ion mode: Positive.
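Note: chemical standards at 10 µM analysed by drift tube IMS-QTOF MS in about 3.95 torr nitrogen, mean of duplicate injections differing ≤1%, mass error below 10 ppm.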

As for `CCN(Cc1cccc(S(=O)(=O)O)c1)c1ccc(C(=C2C=CC(=[N+](CC)Cc3cccc(S(=O)(=O)[O-])c3)C=C2)c2ccccc2)cc1` [FD&C Green No. 1], the “collision cross section in nitrogen” value by setting is: under setting [1], 254.3 Å²; under setting [2], 261.8 Å²; under setting [3], 261.9 Å². With `CN(C)c1ccc(C(=O)c2ccc(N(C)C)cc2)cc1` [Bis(4-(dimethylamino)phenyl)methanone], the “collision cross section in nitrogen” value runs as follows: under setting [4], 166.8 Å²; under setting [1], 166.5 Å²; under setting [2], 175.8 Å².

For `CCCCc1nc(Cl)c(CO)n1Cc1ccc(-c2ccccc2-c2nnn[nH]2)cc1` [Losartan potassium], the “collision cross section in nitrogen” value is 201.6 Å² under setting [4], 201.2 Å² under setting [1], 204.9 Å² under setting [2] and 203.4 Å² under setting [3]. `CC(C)c1ccc(S(=O)(=O)O)cc1` [4-Isopropylbenzenesulfonic acid]: under setting [3], the “collision cross section in nitrogen” value turned out to be 147.7 Å².

As for `CC(C)C1=CC2=CC[C@@H]3[C@](C)(CCC[C@@]3(C)C(=O)O)[C@H]2CC1` [Sodium abietate], the “collision cross section in nitrogen” value under setting [3] is 182 Å². On the same count and under the same terms, next, `Cc1ccccc1O` [o-Cresol]: 120.4 Å². `CC(C)(C)c1ccc(OC2CCCCC2O)cc1` (stereo unspecified) [2-(4-tert-Butylphenoxy)cyclohexanol]: the “collision cross section in nitrogen” value under setting [2] is 179.8 Å².

Consider `CCCCCCCC/C=C/CCCCCCCC(=O)OCC(O)CO` (stereo not drawn) [trans-Monoelaidin], for which the “collision cross section in nitrogen” value under setting [2] worked out at 199 Å². Take `CC(O)CN(CC(C)O)CC(C)O` (stereo unspecified) [Triisopropanolamine]: the “collision cross section in nitrogen” value runs as follows: under setting [4], 141.3 Å²; under setting [1], 141.5 Å²; under setting [2], 143.9 Å². `CCC1(c2ccc(N)cc2)CCC(=O)NC1=O` (stereo unspecified) [Aminoglutethimide]: the “collision cross section in nitrogen” value under setting [3] is reported as 158.8 Å². Still for that read-out and setting: with `Oc1ccccc1-c1ccccc1` [Sodium 2-phenylphenate tetrahydrate] the figure was 136.6 Å². For the molecule `COc1ccc(CCN2CCC(Nc3nc4ccccc4n3Cc3ccc(F)cc3)CC2)cc1` [Astemizole], the “collision cross section in nitrogen” value under setting [1] was found to be 210.8 Å², the “collision cross section in nitrogen” value under setting [2] is given as 213.2 Å² and the “collision cross section in nitrogen” value under setting [3] is reported as 227.8 Å². With `Sc1nc2ccccc2s1` [Sodium 2-mercaptobenzothiolate], the “collision cross section in nitrogen” value under setting [3] is 127.7 Å². The same measure, in the same setting: with `Nc1nc(N)c2nc(CNc3ccc(C(=O)N[C@@H](CCC(=O)O)C(=O)O)cc3)cnc2n1` [Aminopterin] the figure was 199.5 Å². The same measure, in the same setting: with `O[Si](c1ccccc1)(c1ccccc1)c1ccccc1` [Triphenylsilanol] the figure was 171 Å²; with `NS(=O)(=O)c1ccccc1Cl` [2-Chlorobenzenesulfonamide], 133.5 Å². For `COc1cc(OC)c(C(=O)CCCN2CCCC2)c(OC)c1` [Buflomedil hydrochloride], the “collision cross section in nitrogen” value under setting [4] is listed as 176 Å², the “collision cross section in nitrogen” value under setting [1] was determined as 176.1 Å² and the “collision cross section in nitrogen” value under setting [2] is reported as 178.9 Å². Take `O=[N+]([O-])c1ccc(O)cc1` [4-Nitrophenol]: the “collision cross section in nitrogen” value under setting [3] came to 120.6 Å².

With `c1ccc2c(c1)[nH]c1ccccc12` [Carbazole], the “collision cross section in nitrogen” value under setting [5] is 130.2 Å² and the “collision cross section in nitrogen” value under setting [3] came out at 132.9 Å². For the molecule `NCc1cccc(C2CCN(C(=O)c3ccc(C#Cc4ccccc4F)o3)CC2)c1` [AVE5638], the “collision cross section in nitrogen” value is, setting by setting: under setting [4], 192.1 Å²; under setting [1], 192.4 Å². For `Nc1ccc([As](=O)(O)O)cc1` [(4-Aminophenyl)arsonic acid], the “collision cross section in nitrogen” value under setting [1] is 130.9 Å², the “collision cross section in nitrogen” value under setting [2] was found to be 144.9 Å² and the “collision cross section in nitrogen” value under setting [3] is given as 139 Å². Consider `CC1=NNC(=O)N(/N=C/c2cccnc2)C1` [Pymetrozine], for which the “collision cross section in nitrogen” value is on record as 154.8 Å² under setting [4], 154.2 Å² under setting [1] and 155.8 Å² under setting [2]. For `c1ccc(Nc2ccccc2)cc1` [Diphenylamine], the “collision cross section in nitrogen” value by setting is: under setting [1], 137.8 Å²; under setting [5], 133.9 Å². In the case of `Cc1c[nH]c(=O)[nH]c1=O` [Thymine], the “collision cross section in nitrogen” value under setting [3] worked out at 121 Å². For `c1ccc2c(c1)Nc1ccccc1S2` [Phenothiazine], the “collision cross section in nitrogen” value under setting [5] is given as 136 Å². In the case of `O=C(O)Cn1c(=O)n(Cc2ccc(Br)cc2F)c(=O)c2ccc(Cl)cc21` [Zenarestat], the “collision cross section in nitrogen” value under setting [3] is 188.9 Å². With `CCC(C)(NC(=O)c1cc(Cl)c(C)c(Cl)c1)C(=O)CCl` (stereo unspecified) [Zoxamide], the “collision cross section in nitrogen” value was determined as 175.9 Å² under setting [1] and 188 Å² under setting [2]. On to `COc1ccc2sc(C(=O)Nc3nnn[nH]3)c(OC(C)C)c2c1` [CI-959], for which the “collision cross section in nitrogen” value was 190.1 Å² under setting [2] and 178.6 Å² under setting [3]. Take `COC(=O)c1cccnc1` [Methyl nicotinate]: under setting [4], the “collision cross section in nitrogen” value turned out to be 126.6 Å².

Regarding `CCCCCCCCCCCC[N+](C)(C)C` [Dodecyltrimethylammonium bromide], the “collision cross section in nitrogen” value (ion source: ESI, ion mode: Positive, ion type: [M]+ (permanent cation)) is on record as 175.8 Å². In the case of `Nc1ccccc1S(=O)(=O)c1ccccc1` [2-(Phenylsulfonyl)aniline], the “collision cross section in nitrogen” value under setting [3] is 151.8 Å².

With `Oc1cccnc1` [3-Pyridinol], the “collision cross section in nitrogen” value amounted to 117.3 Å² under setting [1] and 114.6 Å² under setting [3]. Regarding `COc1ccc(-c2coc3cc(O)ccc3c2=O)cc1` [Formononetin], the “collision cross section in nitrogen” value runs as follows: under setting [4], 159.8 Å²; under setting [1], 160.3 Å²; under setting [2], 171.4 Å²; under setting [5], 156.9 Å². `OCC(CO)n1cnc(-c2ccc(F)cc2)c1-c1ccnc(Oc2ccccc2)n1`: the “collision cross section in nitrogen” value under setting [4] was 197.6 Å², the “collision cross section in nitrogen” value under setting [1] was 197.1 Å² and the “collision cross section in nitrogen” value under setting [2] worked out at 191 Å². As for `O=C(OCc1ccccc1)c1ccc(O)cc1` [Benzyl 4-hydroxybenzoate], under setting [3], the “collision cross section in nitrogen” value amounted to 158.5 Å².

With `O=C1C(N(CO)C(=O)NCO)N(CO)C(=O)N1CO` (stereo unspecified) [Diazolidinyl urea], the “collision cross section in nitrogen” value under setting [4] is 162.8 Å².

With `N=C(NCCCCCCNC(=N)NC(=N)Nc1ccc(Cl)cc1)NC(=N)Nc1ccc(Cl)cc1` [Chlorhexidine dihydrochloride], the “collision cross section in nitrogen” value was 222.7 Å² under setting [4], 222.9 Å² under setting [1], 227.5 Å² under setting [2] and 233.2 Å² under setting [3]. With `CC(CCc1ccccc1)NCC(O)c1ccc(O)c(C(N)=O)c1` (stereo unspecified) [Labetalol hydrochloride], the “collision cross section in nitrogen” value is, setting by setting: under setting [4], 175.7 Å²; under setting [1], 175.2 Å²; under setting [2], 176.8 Å². `CCCN(CCC)c1c([N+](=O)[O-])cc(C(F)(F)F)cc1[N+](=O)[O-]` [Trifluralin]: the “collision cross section in nitrogen” value under setting [3] is listed as 169.2 Å². As to `COc1cc(C(=O)NC2CCN(C)CC2)ccc1Nc1ncc2c(n1)N(C1CCCC1)CC(F)(F)C(=O)N2C` [Ro 3280], the “collision cross section in nitrogen” value reads like this: under setting [4], 250.9 Å²; under setting [1], 250.7 Å²; under setting [2], 262.3 Å²; under setting [3], 236.7 Å². Regarding `CCN(CC)CCOC(=O)c1ccc(N)cc1` [Procaine hydrochloride], the “collision cross section in nitrogen” value is, setting by setting: under setting [4], 155.9 Å²; under setting [1], 157.1 Å².

Turning to `CCOC(=O)c1sc(N)nc1C(F)(F)F` [Ethyl 2-amino-4-(trifluoromethyl)-1,3-thiazole-5-carboxylate], the “collision cross section in nitrogen” value reads like this: under setting [4], 155.3 Å²; under setting [1], 146.4 Å²; under setting [3], 140.9 Å². As for `O=C1OC2(c3ccccc31)c1ccc(O)c(Br)c1Oc1c2ccc(O)c1Br` [C.I. Solvent Red 72], the “collision cross section in nitrogen” value under setting [4] is reported as 186.2 Å², the “collision cross section in nitrogen” value under setting [1] stood at 185 Å², the “collision cross section in nitrogen” value under setting [2] is recorded as 205.5 Å² and the “collision cross section in nitrogen” value under setting [3] worked out at 190.5 Å².

In the case of `Cc1ccc(C(C)(C)C)c(O)c1` [2-tert-Butyl-5-methylphenol], under setting [3], the “collision cross section in nitrogen” value came out at 138.7 Å².
